# Measurements: US20240285571A1, “METHODS OF TREATING BONE INFECTIONS” (MICROBION CORPORATION, priority 2020, published 2024)
# Read-outs that look alike come from different tables or passages of the source.
# Key:
# B. fragilis [1] = assay: Agar dilution MIC, anaerobes (Example 5); type: cell-based; settings: Bacteroides fragilis, ATCC25285; B. fragilis MMX 123 (ATCC 25285); QC; read-out: MIC
# C. difficile [2] = assay: Agar dilution MIC, anaerobes (Example 5); type: cell-based, Clostridium difficile; settings: Clostridioides difficile, read-out: MIC
# B. fragilis [3] = settings: B. fragilis MMX 123 (ATCC 25285); cited from earlier work
# C. difficile [4] = settings: C. difficile MMX 4381 (ATCC 700057); cited from earlier work
# [5] = test system: baseline pathogens at the surgical site; assay: Phase 2a study: microbiological success / post-baseline microbiology at the index site; type: in vivo, human; settings: Subject 001-002; Subject 006-003, S. aureus (MRSA); 0.5 μg/cm^2 dose group
# Experimental: Microbiology was assessed on Day 1 and at the time of any subsequent surgical procedure at the index site. Samples were collected from the infected bone site or involved tissue adjacent to any implant(s), swabs of the deep infection site, and the superficial tissue/wound closure/sinus tract site. Isolation and identification of aerobic and anerobic bacteria was conducted at a central microbiology laboratory (IHMA, Schaumburg, IL) and susceptibility of the isolates to MBN-101 (BisEDT) and comparator agents was performed per Clinical and Laboratory Standards Institute (CLSI). Parallel sets of samples were analyzed by the local clinical site laboratory to guide patient antibiotic treatment.
# Clinical activity of locally administered MBN-101 was assessed by the following: • Proportion of treatment failures. […] Pain intensity at the surgical site was assessed by VAS (0 to 10 scale). • Findings of microbiology evaluations at the surgical site. Microbiologic success was assessed by clearance of infection. • Findings of radiographic evaluations at the surgical site. Radiographic success was assessed by healing on radiologic examination. • Change in serologic markers CRP and ESR at each post-baseline time point. […]
# [6] = test system: relevant ATCC QC organisms; settings: CLSI established QC range, cited from earlier work
# S. aureus ATCC 29213 = settings: per CLSI M100-S24 or provided by Microbion; cited from earlier work
# E. coli ATCC 25922 = settings: per CLSI M100-S24 or provided by Microbion; cited from earlier work
# N. gonorrhoeae = N. gonorrhoeae MMX 683 (ATCC 49226); cited from earlier work
compound,measurement,setting,value
Cc1ncc([N+](=O)[O-])n1CCO [Metronidazole],MIC,B. fragilis [1],0.5 µg/mL
same,MIC,"C. difficile [2]; ATCC700057, C. difficile MMX 4381 (ATCC 700057), QC, CCI",0.5 µg/mL
same,MIC,"C. difficile [2]; C. difficile MMX 8272, ribotype 255, CCI",0.5 µg/mL
same,MIC,"C. difficile [2]; C. difficile MMX 8279, ribotype 005, CCR",0.5 µg/mL
same,MIC,"C. difficile [2]; C. difficile MMX 8281, ribotype 010, CCR",8 µg/mL
same,MIC,"C. difficile [2]; NCTC13307, C. difficile MMX 5681 (NCTC 13307), ribotype 012, CCR",0.5 µg/mL
same,MIC,"C. difficile [2]; NCTC13336, C. difficile MMX 5680 (NCTC 13336), ribotype 027, CCI METR",> 64 µg/mL
same,CLSI QC range of MIC,B. fragilis [3],(0.25-1) μg/mL
same,CLSI QC range of MIC,C. difficile [4],(0.12-0.5) μg/mL
"C1C[S][Bi]([S]CC[S][Bi]2[S]CC[S]2)[S]1 [BisEDT, bismuth-1,2-ethanedithiol]","Change of BisEDT MIC, baseline vs post-baseline isolates from the same source",[5],unchanged
same,MIC QC range (in parentheses),[6]; E. coli ATCC 25922,(0.5-4)1 μg/mL
same,MIC QC range (in parentheses),[6]; P. aeruginosa ATCC 27853,(0.5-4) μg/mL
same,MIC QC range (in parentheses),[6]; S. aureus ATCC 29213,(0.12-1) μg/mL
same,"MIC, acceptable range",S. aureus ATCC 29213,0.13 to 1 µg/mL
same,"MIC, expected results",S. aureus ATCC 29213,0.25 to 0.5 µg/mL
same,"MIC, acceptable range",E. coli ATCC 25922,0.5 to 2 µg/mL
same,"MIC, expected results",E. coli ATCC 25922,1 µg/mL
CO/N=C(\C(=O)N[C@@H]1C(=O)N2C(C(=O)O)=C(CSc3nc(=O)c(=O)[nH]n3C)CS[C@H]12)c1csc(N)n1 [Ceftriaxone],CLSI QC range of MIC,N. gonorrhoeae,(0.004-0.015) μg/mL
